The results in this text go back to patent publication US10457707B2, “Substituted urea depsipeptide analogs as activators of the CLPP endopeptidase” (priority 2015, dated 2019).

One series deals with E. coli K12ΔtolC. Put plainly: Minimal inhibitory concentration assay (microbroth dilution). It is filed as cell-based. (Broth dilution looks for growth in wells or tubes with falling amounts of substance.)
The test system of series [1] is Vero (kidney epithelial cells; ATCC CCL-81). Put plainly: Cytotoxicity assay (CellTiter-Glo cell viability, 72 hours). The format is cell-based. The settings on record: Vero cells, 72 hours, growth inhibition; read-out: Cytotoxicity IC50. The method, boiled down:
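Vero cells, 5000/well, grown overnight at 37° C, 5% CO2 in DMEM with 10% FBS, then exposed to serial compound dilutions or DMSO for 72 hours. Viability read by CellTiter-Glo luminescence. IC50 from duplicate wells, reported as range over two independent experiments.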

Series [2] concerns Streptococcus pyogenes, ATCC 700294. Put plainly: Minimal inhibitory concentration assay (microbroth dilution). It is filed as cell-based. The settings on record: Streptococcus pyogenes, ATCC700294, read-out: Minimal Inhibitory Concentrations S. pyogenes ATCC 700294. In outline:
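CLSI broth microdilution: two-fold serial compound dilutions in appropriate broth, inoculated and incubated aerobically overnight at 37° C. MIC read visually as lowest concentration preventing bacterial growth.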

Series [3] deals with Bacillus subtilis, ATCC 23857. The description is as above. The format is cell-based. The settings on record: Bacillus subtilis, ATCC23857, read-out: Minimal Inhibitory Concentrations B. subtilis ATCC 23857. The method, boiled down: (§1)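 CLSI broth microdilution; 2-fold series from 200 μM final; inoculum ~10^5 cfu/mL; 37 °C, aerobic, overnight; visual MIC = lowest conc. without growth. The ClpP-inactivated USA 300 strain is the comparator for ClpP-dependent killing.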

Series [4] concerns Staphylococcus aureus, NRS70. The series is described as above. The conditions noted are these: Staphylococcus aureus, NRS70, read-out: Minimal Inhibitory Concentrations S. aureus NRS70. The format is cell-based. In outline: as §1
In series [5] the test system is Staphylococcus aureus, ATCC 29213. The description is as above. The conditions noted are these: ATCC29213, read-out: Minimal Inhibitory Concentrations S. aureus ATCC 29213. It is filed as cell-based. The method, boiled down:
as §1

Series [6] relates to Enterococcus faecalis, ATCC 33186. Described as above. The format is cell-based. The settings on record: Enterococcus faecalis, ATCC33186, read-out: Minimal Inhibitory Concentrations E. faecalis ATCC 33186. In outline: as §1
The test system of series [7] is Streptococcus pneumoniae, DAW27. Described as above. The settings on record: DAW27, read-out: Minimal Inhibitory Concentrations S. pneumoniae DAW27. The format is cell-based. The method, boiled down: as §1
A short description of a further series: physchem. The conditions noted are these: 22 °C, aqueous buffer, kinetic from dmso stock.

Converted amounts (≈) assume the structure as drawn. *1 amine or outer side, *2 acyl side, *3 side chain or, on linkers, in order; H or OH if unused. Where a SMILES comes first, the peptide text is derived from it. Bridges are numbered along the chain shown (N, C = ends). [ ]: non-standard residue; d: D form. The star is where a group is joined. X15 = O=C([C@@H]1C[C@@H](OP(=O)(O)O)CN1[*:1])[*:2]; Phe(3,5-F2) = N[C@@H](Cc1cc(F)cc(F)c1)C(=O)O; Morpholine(3S-CO) = O=C(O)[C@@H]1COCCN1; Pro(4S-Me) = C[C@@H]1CN[C@H](C(=O)O)C1; Pro(4R-Me) = C[C@H]1CN[C@H](C(=O)O)C1; NH(3,4-Me2-phenyl) = Cc1ccc(N*)cc1C; NH(4-Me-phenyl) = Cc1ccc(N*)cc1; aThr = C[C@H](O)[C@H](N)C(=O)O; Pip = O=C(O)[C@@H]1CCCCN1; NMeA = CN[C@@H](C)C(=O)O; CO = O=C([*:1])[*:2]

As for `C[C@@H]1C[C@H]2C(=O)OC[C@H](NC(=O)[C@H](Cc3ccccc3)NC(=O)Nc3ccccc3)C(=O)N3CCC[C@H]3C(=O)N3CCCC[C@H]3C(=O)N[C@@H](C)C(=O)N2C1` [Compound 1, (S)—N-((2R,6S,8aS,14aS,20S,23aS)-2,6-dimethyl-5,8,14,19,23-pentaoxooctadecahydro-1H,5H,14H,19H-pyrido[2,1-i]dipyrrolo[2,1-c:2′,1′-l][1]oxa[4,7,10,13]tetraazacyclohexadecin-20-yl)-3-phenyl-2-(3-phenylureido)propanamide], the “Minimal Inhibitory Concentrations E. coli K12ΔtolC” value in the series with E. coli K12ΔtolC is 200 µM. Further, in [1], the IC50 was above 100 µM. The MIC in [2] was determined as 1.56 µM (≈ 1.16 µg/mL); in [3], 1.56 µM (≈ 1.16 µg/mL); in series [4], 6.25 µM (≈ 4.65 µg/mL); in series [5] it was 6.25 µM (≈ 4.65 µg/mL); in series [6] it was 3.13 µM (≈ 2.33 µg/mL); in series [7], 0.78 µM (≈ 0.58 µg/mL).
For `C[C@@H]1C[C@H]2C(=O)OC[C@H](NC(=O)[C@H](Cc3ccccc3)NC(=O)Nc3ccc(Cl)cc3)C(=O)N3CCC[C@H]3C(=O)N3CCCC[C@H]3C(=O)N[C@@H](C)C(=O)N2C1` [Compound 3, (S)-2-(3-(4-chlorophenyl)ureido)-N-((2R,6S,8aS,14aS,20S,23aS)-2,6-dimethyl-5,8,14,19,23-pentaoxooctadecahydro-1H,5H,14H,19H-pyrido[2,1-i]dipyrrolo[2,1-c:2′,1′-l][1]oxa[4,7,10,13]tetraazacyclohexadecin-20-yl)-3-phenylpropanamide], the “Minimal Inhibitory Concentrations E. coli K12ΔtolC” value in the series on E. coli K12ΔtolC came to 25 µM. In addition, in series [1], the IC50 is 63 ± 5.8 µM. Moreover, the MIC in [2] is 0.39 µM (≈ 0.304 µg/mL); in series [3], 0.78 µM (≈ 0.607 µg/mL); in series [4], 0.78 µM (≈ 0.607 µg/mL); in [5], 1.56 µM (≈ 1.21 µg/mL); in series [6] it was 0.2 µM (≈ 0.156 µg/mL); in [7], 0.2 µM (≈ 0.156 µg/mL).
Take `C[C@@H]1C[C@H]2C(=O)OC[C@H](NC(=O)[C@H](Cc3ccccc3)NC(=O)Nc3ccc(N(C)C)cc3)C(=O)N3CCC[C@H]3C(=O)N3CCCC[C@H]3C(=O)N[C@@H](C)C(=O)N2C1` [Compound 5, (S)—N-((2R,6S,8aS,14aS,20S,23aS)-2,6-dimethyl-5,8,14,19,23-pentaoxooctadecahydro-1H,5H,14H,19H-pyrido[2,1-i]dipyrrolo[2,1-c:2′,1′-l][1]oxa[4,7,10,13]tetraazacyclohexadecin-20-yl)-2-(3-(4-(dimethylamino)phenyl)ureido)-3-phenylpropanamide]: the “Minimal Inhibitory Concentrations E. coli K12ΔtolC” value in the series on E. coli K12ΔtolC came to 50 µM. Further, in [1], the half-inhibitory concentration (IC50) worked out at 91.3 ± 12.7 µM. Also, the MIC is 0.78 µM (≈ 0.614 µg/mL) in series [2]; 0.78 µM (≈ 0.614 µg/mL) in series [3]; 1.56 µM (≈ 1.23 µg/mL) in [4]; 6.25 µM (≈ 4.92 µg/mL) in series [5]; 0.78 µM (≈ 0.614 µg/mL) in series [6]; 0.39 µM (≈ 0.307 µg/mL) in [7].
On to `COc1ccc(NC(=O)N[C@@H](Cc2ccccc2)C(=O)N[C@H]2COC(=O)[C@@H]3C[C@@H](C)CN3C(=O)[C@H](C)NC(=O)[C@@H]3CCCCN3C(=O)[C@@H]3CCCN3C2=O)cc1` [Compound 6, (S)—N-((2R,6S,8aS,14aS,20S,23aS)-2,6-dimethyl-5,8,14,19,23-pentaoxooctadecahydro-1H,5H,14H,19H-pyrido[2,1-i]dipyrrolo[2,1-c:2′,1′-l][1]oxa[4,7,10,13]tetraazacyclohexadecin-20-yl)-2-(3-(4-Methoxyphenyl)ureido)-3-phenylpropanamide], for which the “Minimal Inhibitory Concentrations E. coli K12ΔtolC” value in the series with E. coli K12ΔtolC was 50 µM. For the same compound, the IC50 in [1] is above 100 µM. Moreover, the MIC in series [2] was 0.39 µM (≈ 0.302 µg/mL); in series [3] it was 1.56 µM (≈ 1.21 µg/mL); in [4], 3.13 µM (≈ 2.42 µg/mL); in series [5], 3.13 µM (≈ 2.42 µg/mL); in series [6] it was 0.78 µM (≈ 0.604 µg/mL); in [7], 0.2 µM (≈ 0.155 µg/mL).
Regarding `C[C@@H]1C[C@H]2C(=O)OC[C@H](NC(=O)[C@H](Cc3ccccc3)NC(=O)Nc3ccccc3Cl)C(=O)N3CCC[C@H]3C(=O)N3CCCC[C@H]3C(=O)N[C@@H](C)C(=O)N2C1` [Compound 7, (S)-2-(3-(2-chlorophenyl)ureido)-N-((2R,6S,8aS,14aS,20S,23aS)-2,6-dimethyl-5,8,14,19,23-pentaoxooctadecahydro-1H,5H,14H,19H-pyrido[2,1-i]dipyrrolo[2,1-c:2′,1′-l][1]oxa[4,7,10,13]tetraazacyclohexadecin-20-yl)-3-phenylpropanamide], the “Minimal Inhibitory Concentrations E. coli K12ΔtolC” value with E. coli K12ΔtolC was found to be 200 µM. Further, the IC50 in series [1] was above 100 µM. Moreover, the MIC in series [2] was found to be 3.13 µM (≈ 2.44 µg/mL); in [3], 6.25 µM (≈ 4.86 µg/mL); in [4], 12.5 µM (≈ 9.73 µg/mL); in [5], 12.5 µM (≈ 9.73 µg/mL); in series [6] it was 3.13 µM (≈ 2.44 µg/mL); in [7] it was 0.78 µM (≈ 0.607 µg/mL).
In the case of `C[C@@H]1C[C@H]2C(=O)OC[C@H](NC(=O)[C@H](Cc3ccccc3)NC(=O)Nc3cccc(Cl)c3)C(=O)N3CCC[C@H]3C(=O)N3CCCC[C@H]3C(=O)N[C@@H](C)C(=O)N2C1` [Compound 9, (S)-2-(3-(3-chlorophenyl)ureido)-N-((2R,6S,8aS,14aS,20S,23aS)-2,6-dimethyl-5,8,14,19,23-pentaoxooctadecahydro-1H,5H,14H,19H-pyrido[2,1-i]dipyrrolo[2,1-c:2′,1′-l][1]oxa[4,7,10,13]tetraazacyclohexadecin-20-yl)-3-phenylpropanamide], in the series on E. coli K12ΔtolC, the “Minimal Inhibitory Concentrations E. coli K12ΔtolC” value was found to be 25 µM. In addition, in series [1], the IC50 amounted to 89 ± 5 µM. Moreover, the MIC in series [2] stood at 1.56 µM (≈ 1.21 µg/mL); in series [3], 1.56 µM (≈ 1.21 µg/mL); in [4], 1.56 µM (≈ 1.21 µg/mL); in series [5], 3.13 µM (≈ 2.44 µg/mL); in series [6] it was 1.56 µM (≈ 1.21 µg/mL); in series [7], 0.78 µM (≈ 0.607 µg/mL).
Consider `Cc1ccc(NC(=O)N[C@@H](Cc2cc(F)cc(F)c2)C(=O)N[C@@H]2C(=O)N3C[C@H](OP(=O)(O)O)C[C@H]3C(=O)N(C)[C@@H](C)C(=O)N[C@@H](C)C(=O)N3C[C@@H](C)C[C@H]3C(=O)O[C@H]2C)cc1` [Compound 187, (2S,6S,9S,11aS,13R,17S,18S,20aS)-17-((S)-3-(3,5-difluorophenyl)-2-(3-(p-tolyl)ureido)propanamido)-2,6,9,10,18-pentamethyl-5,8,11,16,20-pentaoxohexadecahydro-1H,5H,16H-dipyrrolo[2,1-c:2′,1′-l][1]oxa[4,7,10,13]tetraazacyclohexadecin-13-yl dihydrogen phosphate] ({NH(4-Me-phenyl)-CO}-[Phe(3,5-F2)][aThr][X15][NMeA]A[Pro(4S-Me)]; ester 2-C), for which the solubility in “physchem” stood at 118 ± 1.4 µM.
Regarding `Cc1ccc(NC(=O)N[C@@H](Cc2cc(F)cc(F)c2)C(=O)N[C@@H]2C(=O)N3C[C@H](OP(=O)(O)O)C[C@H]3C(=O)N3CCOC[C@H]3C(=O)N[C@@H](C)C(=O)N3C[C@H](C)C[C@H]3C(=O)O[C@H]2C)cc1C` [Compound 189, (6aS,8R,12S,13S,15aS,17R,21S,23aS)-12-((S)-3-(3,5-difluorophenyl)-2-(3-(3,4-dimethylphenyl)ureido)propanamido)-13,17,21-trimethyl-6,11,15,20,23-pentaoxooctadecahydro-6H,11H,15H-[1,4]oxazino[3,4-i]dipyrrolo[2,1-c:2′,1′-L][1]oxa[4,7,10,13]tetraazacyclohexadecin-8-yl dihydrogen phosphate] ({NH(3,4-Me2-phenyl)-CO}-[Phe(3,5-F2)][aThr][X15][Morpholine(3S-CO)]A[Pro(4R-Me)]; ester 2-C), the solubility in “physchem” stood at 117 ± 3.2 µM.
The compound `Cc1ccc(NC(=O)N[C@@H](Cc2cc(F)cc(F)c2)C(=O)N[C@@H]2C(=O)N3C[C@H](OP(=O)(O)O)C[C@H]3C(=O)N3CCCC[C@H]3C(=O)N[C@@H](C)C(=O)N3C[C@H](C)C[C@H]3C(=O)O[C@H]2C)cc1` [Compound 190, (2R,6S,8aS,14aS,16R,20S,21S,23aS)-20-((S)-3-(3,5-difluorophenyl)-2-(3-(p-tolyl)ureido)propanamido)-2,6,21-trimethyl-5,8,14,19,23-pentaoxooctadecahydro-1H,5H,14H,19H-pyrido[2,1-i]dipyrrolo[2,1-c:2′,1′-l][1]oxa[4,7,10,13]tetraazacyclohexadecin-16-yl dihydrogen phosphate] ({NH(4-Me-phenyl)-CO}-[Phe(3,5-F2)][aThr][X15][Pip]A[Pro(4R-Me)]; ester 2-C) had a solubility in the series “physchem” of 113 ± 3.9 µM.

The IC50 is the point on the concentration scale where inhibition reaches its midpoint. As a reminder, the solubility is the dissolved amount per volume that the medium holds. Low values mean little dissolved substance, high ones much dissolved substance.
